In US12692264B2, “Pyrimidine or pyridine derivative, preparation method therefor, and application thereof in pharmacy” (ABBISKO THERAPEUTICS CO., LTD., priority 2021, dated 2026):

Legend:
Format in all cases: cell-based
[1] = biological target: Ba/F3 EGFR-V769_D770insASV (Homo sapiens, UniProt P00533, DUP767-769, cells depend on it); assay: Cell proliferation study (CellTiter-Glo, 72 hrs), Ba/F3 EGFR-V769_D770insASV; conditions: CTG, * = average of multiple measurements, read-out: Ba/F3 EGFR-V769_D770insASV IC50
In short: (§1)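 Cells were seeded overnight, then exposed for 72 hrs at 37 °C, 5% CO2 to 9 concentrations in 3.16-fold steps, 0.1% DMSO final, triplicate wells. Viability was read by CellTiter-Glo luminescence, with a T0 plate read at dosing. IC50 came from nonlinear sigmoidal dose-response fits.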

A431 (EGFR-WT) = assay: Cell proliferation study (CellTiter-Glo, 72 hrs), A431; conditions: Homo sapiens, A-431, A431 cells, CTG, * = average of multiple measurements
In short: as §1

[2] = biological target: Ba/F3 EGFR-D770-N771ins_SVD (Homo sapiens, UniProt P00533, DUP768-770, cells depend on it); assay: Cell proliferation study (CellTiter-Glo, 72 hrs), Ba/F3 EGFR-D770-N771ins_SVD; conditions: CTG, * = average of multiple measurements, read-out: Ba/F3 EGFR-D770-N771ins_SVD IC50
In short: as §1

Chain of Ba/F3 EGFR-V769_D770insASV (P00533 with tags, fused parts or gaps DUP767-769): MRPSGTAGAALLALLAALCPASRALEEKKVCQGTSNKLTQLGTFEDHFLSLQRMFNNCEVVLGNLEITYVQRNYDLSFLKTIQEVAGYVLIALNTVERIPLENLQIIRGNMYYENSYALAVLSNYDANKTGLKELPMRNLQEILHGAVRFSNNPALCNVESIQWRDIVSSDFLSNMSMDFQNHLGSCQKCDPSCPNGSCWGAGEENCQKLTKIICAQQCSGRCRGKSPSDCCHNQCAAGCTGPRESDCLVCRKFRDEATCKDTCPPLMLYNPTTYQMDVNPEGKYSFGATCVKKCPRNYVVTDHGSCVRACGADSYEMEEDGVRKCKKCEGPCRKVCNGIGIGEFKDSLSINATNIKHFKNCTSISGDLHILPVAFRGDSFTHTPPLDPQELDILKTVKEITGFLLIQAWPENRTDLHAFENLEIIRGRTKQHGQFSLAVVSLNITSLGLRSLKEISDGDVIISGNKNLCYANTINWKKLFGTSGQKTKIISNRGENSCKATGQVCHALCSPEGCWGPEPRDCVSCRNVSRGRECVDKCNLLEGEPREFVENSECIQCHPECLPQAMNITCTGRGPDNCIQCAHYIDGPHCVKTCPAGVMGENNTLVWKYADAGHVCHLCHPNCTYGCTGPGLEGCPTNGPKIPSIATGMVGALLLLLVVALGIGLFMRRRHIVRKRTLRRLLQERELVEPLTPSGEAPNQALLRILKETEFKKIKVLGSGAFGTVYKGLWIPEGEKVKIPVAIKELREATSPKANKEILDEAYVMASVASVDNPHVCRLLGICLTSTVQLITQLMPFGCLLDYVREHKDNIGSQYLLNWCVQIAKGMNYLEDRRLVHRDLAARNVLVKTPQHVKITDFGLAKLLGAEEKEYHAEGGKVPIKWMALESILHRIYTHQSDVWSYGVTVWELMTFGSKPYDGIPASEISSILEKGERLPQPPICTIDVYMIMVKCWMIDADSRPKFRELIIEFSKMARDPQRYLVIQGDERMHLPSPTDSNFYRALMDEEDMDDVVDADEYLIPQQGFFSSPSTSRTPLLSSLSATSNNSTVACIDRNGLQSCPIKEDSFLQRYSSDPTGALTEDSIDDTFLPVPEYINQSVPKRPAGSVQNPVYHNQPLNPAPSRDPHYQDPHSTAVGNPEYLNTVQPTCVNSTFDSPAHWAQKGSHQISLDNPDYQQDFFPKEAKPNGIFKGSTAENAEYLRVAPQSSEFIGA
Chain of Ba/F3 EGFR-D770-N771ins_SVD (P00533 with tags, fused parts or gaps DUP768-770): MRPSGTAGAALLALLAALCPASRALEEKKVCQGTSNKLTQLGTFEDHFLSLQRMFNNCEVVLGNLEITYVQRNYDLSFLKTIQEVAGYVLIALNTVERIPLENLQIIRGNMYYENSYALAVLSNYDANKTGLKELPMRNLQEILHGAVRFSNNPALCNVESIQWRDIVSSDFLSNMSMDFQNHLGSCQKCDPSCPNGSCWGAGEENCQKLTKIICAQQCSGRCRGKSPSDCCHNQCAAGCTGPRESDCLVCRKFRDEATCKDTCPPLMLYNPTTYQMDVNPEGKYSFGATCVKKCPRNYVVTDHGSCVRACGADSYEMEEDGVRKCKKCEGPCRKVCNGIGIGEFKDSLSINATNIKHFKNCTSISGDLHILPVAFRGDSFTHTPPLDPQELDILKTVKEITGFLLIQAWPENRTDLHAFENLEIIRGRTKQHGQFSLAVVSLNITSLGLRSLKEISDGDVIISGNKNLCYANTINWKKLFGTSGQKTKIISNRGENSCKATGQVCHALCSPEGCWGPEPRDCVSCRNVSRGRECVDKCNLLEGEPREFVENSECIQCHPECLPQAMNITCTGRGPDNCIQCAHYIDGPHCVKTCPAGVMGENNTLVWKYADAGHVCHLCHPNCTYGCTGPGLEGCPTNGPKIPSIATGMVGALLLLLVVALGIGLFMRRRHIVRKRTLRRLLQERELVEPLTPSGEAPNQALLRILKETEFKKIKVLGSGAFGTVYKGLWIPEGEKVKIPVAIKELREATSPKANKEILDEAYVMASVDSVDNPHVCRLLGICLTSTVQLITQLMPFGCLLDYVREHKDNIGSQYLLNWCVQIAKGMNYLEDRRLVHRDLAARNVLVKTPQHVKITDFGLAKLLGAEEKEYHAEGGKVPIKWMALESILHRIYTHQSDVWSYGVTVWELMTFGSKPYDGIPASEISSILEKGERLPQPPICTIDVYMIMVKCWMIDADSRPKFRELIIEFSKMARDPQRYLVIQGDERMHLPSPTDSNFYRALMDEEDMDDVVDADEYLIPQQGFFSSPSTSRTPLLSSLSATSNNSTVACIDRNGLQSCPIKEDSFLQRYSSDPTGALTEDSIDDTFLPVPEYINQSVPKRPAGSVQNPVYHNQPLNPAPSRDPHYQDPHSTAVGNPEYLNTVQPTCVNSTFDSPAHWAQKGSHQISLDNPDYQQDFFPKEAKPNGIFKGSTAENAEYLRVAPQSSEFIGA

## C=CC(=O)Nc1cc(Nc2ncc(C(=O)OC(C)C)c(N3CC4(CCC4)c4ncccc43)n2)c(OC)cc1N(C)CCN(C)C [Example 7, isopropyl 2-((5-acrylamido-4-((2-(dimethylami-no)ethyl)(methyl)amino)-2-methoxy-phenyl)amino)-4-(spiro(cyclobutane-1,3′-pyrrolo[3,2-b]pyridin)-1′(2′H)-yl)pyrimidine-5-carboxylate]
[1]
  GI50: 29.9 nM
A431 (EGFR-WT)
  IC50: 735 nM
[2]
  GI50: 18.8 nM

## C=CC(=O)Nc1cc(Nc2ncc(C(=O)OC(C)C)c(N3CC(C)(C)c4nc(F)ccc43)n2)c(OC)cc1N(C)CCN(C)C [Example 11, isopropyl 2-((5-acrylamido-4-((2-(dimethylami-no)ethyl)(methyl)amino)-2-methoxy-phenyl)amino)-4-(5-fluoro-3,3-dimethyl-2,3-dihydro-1H-pyrrolo[3,2-b]pyridin-1-yl)pyrimidine-5-carboxylate]
[1]
  GI50: 37.3 nM
A431 (EGFR-WT)
  IC50: 828 nM
[2]
  GI50: 30.2 nM

## C=CC(=O)Nc1cc(Nc2ncc(C(=O)OC(C)C)c(N3CC4(CC4)c4nc(C)ccc43)n2)c(OC)cc1N(C)CCNC [Example 25, isopropyl 2-((5-acrylamido-2-methoxy-4-(methyl(2-(methylamino)ethyl)ami-no)phenyl)amino)-4-(5′-methyl-spiro(cyclopropane-1,3′-pyrrolo[3,2-b]pyridin)-1′(2′H)-yl)pyrimidine-5-carboxylate]
[1]
  GI50: 53.8 nM
A431 (EGFR-WT)
  IC50: 222 nM
[2]
  GI50: 34.2 nM

## C=CC(=O)Nc1cc(Nc2ncc(C(=O)OC(C)C)c(N3CC(C)(C)c4nc(C)ccc43)n2)c(OC)cc1N(C)CCN(C)C [Example 1, isopropyl 2-((5-acrylamido-4-((2-(dimethylamino)ethyl)(methyl)amino)-2-methoxyphenyl)amino)-4-(3,3,5-trimethyl-2,3-dihydro-1H-pyrrolo[3,2-b]pyridin-1-yl)pyrimidine-5-carboxylate]
[1]
  GI50: 10.4 nM
A431 (EGFR-WT)
  IC50: 105 nM
[2]
  GI50: 7 nM

## [2H]C1([2H])N(c2nc(Nc3cc(NC(=O)C=C)c(N(C)C[C@@H]4CCCN4C)cc3OC)ncc2C(=O)OC(C)C)c2ccc(C)nc2C1(C)C [Example 52, isopropyl (S)-2-((5-acrylamido-2-methoxy-4-(methyl((1-methylpyrrolidin-2-yl)methyl)amino)phenyl)amino)-4-(3,3,5-trimethyl-2,3-dihydro-1H-pyrrolo[3,2-b]pyridin-1-yl-2,2-d2)pyrimidine-5-carboxylate]
[1]
  GI50: 61.9 nM
A431 (EGFR-WT)
  IC50: 185 nM
[2]
  GI50: 24.1 nM

## C=CC(=O)Nc1cc(Nc2ncc(C(=O)OC(C)C)c(N3CC(C)(C)c4nc(C)ccc43)n2)c(OC)nc1N(C)C[C@@H]1CCCN1C [Example 46, isopropyl (S)-2-((5-acrylamido-2-methoxy-6-(methyl((1-methylpyrrolidin-2-yl)methyl)amino)pyridin-3-yl)amino)-4-(3,3,5-trimethyl-2,3-dihydro-1H-pyrrolo[3,2-b]pyridin-1-yl)pyrimidine-5-carboxylate]
[1]
  GI50: 33.5 nM
A431 (EGFR-WT)
  IC50: 270 nM
[2]
  GI50: 20.5 nM

## [2H]C([2H])([2H])C1(C([2H])([2H])[2H])CN(c2nc(Nc3cc(NC(=O)C=C)c(N(C)CCN(C)C)cc3OC)ncc2C(=O)OC(C)C)c2ccc(C)nc21 [Example 73, isopropyl 2-((5-acrylamido-4-((2-(dimethylami-no)ethyl)(methyl)amino)-2-methoxy-phenyl)amino)-4-(5-methyl-3,3-bis(methyl-d3)-2,3-dihydro-1H-pyrrolo[3,2-b]pyridin-1-yl)pyrimidine-5-carboxylate]
[1]
  GI50: 34.8 nM
A431 (EGFR-WT)
  IC50: 90 nM
[2]
  GI50: 12.3 nM

## C=CC(=O)Nc1cc(Nc2ncc(C(=O)OC(C)C)c(N3CC(C)(C)c4nc(C#CC)ccc43)n2)c(OC)cc1N(C)CCN(CC)CC [Example 89, isopropyl 2-((5-acrylamido-4-((2-(diethyl-amino)ethyl)(methyl)amino)-2-methoxyphenyl)amino)-4-(3,3-dimethyl-5-(prop-1-yn-1-yl)-2,3-dihydro-1H-pyrrolo[3,2-b]pyridin-1-yl)pyrimidine-5-carboxylate]
[1]
  GI50: 242 nM
A431 (EGFR-WT)
  IC50: 178 nM
[2]
  GI50: 13.1 nM

## C=CC(=O)Nc1cc(Nc2ncc(C(=O)OC(C)C)c(N3CC(C)(C)c4nc(C#CC)ccc43)n2)c(OC)cc1N1CC[C@@H](N(C)C)C1 [Example 74, isopropyl (R)-2-((5-acrylamido-4-(3-(dimethyl-amino)pyrrolidin-1-yl)-2-methoxy-phenyl)amino)-4-(3,3-dimethyl-5-(prop-1-yn-1-yl)-2,3-dihydro-1H-pyrrolo[3,2-b]pyridin-1-yl)pyrimidine-5-carboxylate]
[1]
  GI50: 43.6 nM
A431 (EGFR-WT)
  IC50: 99.3 nM
[2]
  GI50: 15.5 nM

## C=CC(=O)Nc1cc(Nc2ncc(C(=O)OC(C)C)c(N3CC4(CC4)c4nc(C)ccc43)n2)c(OC)cc1N(C)C[C@@H]1CCCN1C [Example 44, isopropyl (S)-2-((5-acrylamido-2-methoxy-4-(methyl((1-methylpyrrolidin-2-yl)methyl)amino)phenyl)amino)-4-(5′-methylspiro(cyclopropane-1,3′-pyrrolo[3,2-b]pyridin)-1′(2′H)-yl)pyrimidine-5-carboxylate]
[1]
  GI50: 76.5 nM
A431 (EGFR-WT)
  IC50: 235 nM
[2]
  GI50: 30.4 nM

## [2H]C1([2H])N(c2nc(Nc3cc(NC(=O)C=C)c(N4CC(N(C)C)C4)cc3OC)ncc2C(=O)OC(C)C)c2ccc(C)nc2C1(C)C [Example 50, isopropyl 2-((5-acrylamido-4-(3-(dimethylami-no)azetidin-1-yl)-2-methoxy-phenyl)amino)-4-(3,3,5-trimethyl-2,3-dihydro-1H-pyrrolo[3,2-b]pyridin-1-yl-2,2-d2)pyrimidine-5-carboxylate]
[1]
  GI50: 27.9 nM
A431 (EGFR-WT)
  IC50: 813 nM
[2]
  GI50: 36.7 nM

## C=CC(=O)Nc1cc(Nc2ncc(C(=O)OC(C)C)c(N3CC(C)(C)c4nc(C)ccc43)n2)c(OC)nc1N1CCC[C@@H]1CN(C)C [Example 31, isopropyl (R)-2-((5-acrylamido-6-(2-((dimethyl-amino)methyl)pyrrolidin-1-yl)-2-meth-oxypyridin-3-yl)amino)-4-(3,3,5-tri-methyl-2,3-dihydro-1H-pyrrolo[3,2-b]pyridin-1-yl)pyrimidine-5-carboxylate]
[1]
  GI50: 13.9 nM
A431 (EGFR-WT)
  IC50: 183 nM
[2]
  GI50: 11.8 nM

## C=CC(=O)Nc1cc(Nc2ncc(C(=O)OC(C)C)c(N3CC(C)(C)c4cc(F)c(F)cc43)n2)c(OC)cc1N1CCC[C@@H]1CN(C)C [Example 92, isopropyl (R)-2-((5-acrylamido-4-(2-((dimethyl-amino)methyl)pyrrolidin-1-yl)-2-meth-oxyphenyl)amino)-4-(5,6-difluoro-3,3-dimethylindolin-1-yl)pyrimidine-5-carboxylate]
[1]
  GI50: 27.9 nM
A431 (EGFR-WT)
  IC50: 962 nM
[2]
  GI50: 33.2 nM

## C=CC(=O)Nc1cc(Nc2ncc(C(=O)OC(C)C)c(N3CC(C)(C)c4ccccc43)n2)c(OC)cc1N1C[C@@H](F)C[C@@H]1CN(C)C [Example 87, isopropyl 2-((5-acrylamido-4-((2R,4S)-2-((di-methylamino)methyl)-4-fluoro-pyrrolidin-1-yl)-2-methoxy-phenyl)amino)-4-(3,3-dimethyl-indolin-1-yl)pyrimidine-5-carboxylate]
[1]
  GI50: 12.5 nM
A431 (EGFR-WT)
  IC50: 58.1 nM
[2]
  GI50: 25.8 nM

## C=CC(=O)Nc1cc(Nc2ncc(C(=O)OC(C)C)c(N3CC(C)(C)c4nc(C)ccc43)n2)c(OC)cc1N1CCC[C@H](N(C)C)C1 [Example 60, isopropyl (S)-2-((5-acrylamido-4-(3-(dimethyl-amino)piperidin-1-yl)-2-methoxy-phenyl)amino)-4-(3,3,5-trimethyl-2,3-dihydro-1H-pyrrolo[3,2-b]pyridin-1-yl)pyrimidine-5-carboxylate]
[1]
  GI50: 37.9 nM
A431 (EGFR-WT)
  IC50: 761 nM
[2]
  GI50: 31.9 nM

## C=CC(=O)Nc1cc(Nc2ncc(C(=O)OC(C)C)c(N3CC(C)(C)c4nc(C)ccc43)n2)c(OC)cc1N1C[C@@H](F)C[C@@H]1CN(C)C [Example 63, isopropyl 2-((5-acrylamido-4-((2R,4S)-2-((dimethylamino)methyl)-4-fluoro-pyrrolidin-1-yl)-2-methoxy-phenyl)amino)-4-(3,3,5-trimethyl-2,3-dihydro-1H-pyrrolo[3,2-b]pyridin-1-yl)pyrimidine-5-carboxylate]
[1]
  GI50: 18.3 nM
A431 (EGFR-WT)
  IC50: 110 nM
[2]
  GI50: 10.7 nM

## C=CC(=O)Nc1cc(Nc2ncc(C(=O)OC(C)C)c(N3CC4(CC4)c4nc(C)ccc43)n2)c(OC)cc1N1CC[C@@H](N(C)C)C1 [Example 26, isopropyl (R)-2-((5-acrylamido-4-(3-(dimethyl-amino)pyrrolidin-1-yl)-2-methoxy-phenyl)amino)-4-(5′-methyl-spiro(cyclopropane-1,3′-pyrrolo[3,2-b]pyridin)-1′(2′H)-yl)pyrimidine-5-carboxylate]
[1]
  GI50: 52.8 nM
A431 (EGFR-WT)
  IC50: 363 nM
[2]
  GI50: 29.7 nM

## [2H]C([2H])([2H])N(CCN(C)C)c1cc(OC)c(Nc2ncc(C(=O)OC(C)C)c(N3c4ccc(C)nc4C(C)(C)C3([2H])[2H])n2)cc1NC(=O)C=C [Example 71, isopropyl 2-((5-acrylamido-4-((2-(dimethylami-no)ethyl)(methyl-d3)amino)-2-methoxy-phenyl)amino)-4-(3,3,5-trimethyl-2,3-dihydro-1H-pyrrolo[3,2-b]pyridin-1-yl-2,2-d2)pyrimidine-5-carboxylate]
[1]
  GI50: 30.4 nM
A431 (EGFR-WT)
  IC50: 65.5 nM
[2]
  GI50: 14.8 nM
